From patent US9675571B2, “Inhibitors of indoleamine 2,3-dioxygenase (IDO)” (BRISTOL-MYERS SQUIBB COMPANY, priority 2013, dated 2017)

target: Human IDO1 (Homo sapiens (Human), UniProt P14902); test: IDO Kynurenine Assay with Human IDO1/HEK293 Cells; type: cell-based; details: 20 hours incubation, kynurenine detected with Ehrlich reagent, absorbance at 490 nm, read-out: HEK Human IDO-1 IC50
Method: Human IDO1/HEK293 cells were seeded at 10,000 cells per 50 uL per well with RPMI/phenol red free media contains 10% FBS in a 384-well black wall clear bottom tissue culture plate (Matrix Technologies LLC) 125 nL of certain concentration of compound was then added to each well using ECHO liquid handling systems. The cells were incubated for 20 hours in 37° C. incubator with 5% CO2.
The compound treatments were stopped by adding Trichloroacetic Acid (Sigma-Aldrich) to a final concentration at 0.2%. The cell plate was further incubated at 50° C. for 30 minute. The equal volume supernatant (20 uL) and 0.2% (w/v) Ehrlich reagent (4-dimethylaminobenzaldehyde, Sigma-Aldrich) in glacial acetic acid were mixed in a new clear bottom 384-well plate. This plate was then incubated at room temperature for 30 minute. The absorbance at 490 nm was measured on Envision plate reader.
Compound IC50 values were calculated using the counts of 500 nM of a reference standard treatment as one hundred percent inhibition, and counts of no compound but DMSO treatment as zero percent inhibition.

Human IDO1, sequence (P14902 whole entry): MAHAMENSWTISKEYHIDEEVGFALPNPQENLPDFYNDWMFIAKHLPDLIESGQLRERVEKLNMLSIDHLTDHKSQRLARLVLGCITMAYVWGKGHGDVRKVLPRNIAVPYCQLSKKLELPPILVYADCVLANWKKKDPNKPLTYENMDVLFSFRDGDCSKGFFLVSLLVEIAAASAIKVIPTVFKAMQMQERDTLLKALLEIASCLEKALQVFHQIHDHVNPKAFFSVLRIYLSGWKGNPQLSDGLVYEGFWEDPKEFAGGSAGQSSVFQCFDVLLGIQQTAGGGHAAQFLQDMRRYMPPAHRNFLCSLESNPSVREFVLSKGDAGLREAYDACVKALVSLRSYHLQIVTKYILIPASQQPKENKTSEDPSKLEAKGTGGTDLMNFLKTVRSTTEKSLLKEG

| SMILES | IC50 |
| --- | --- |
| COCCN(Cc1ccc(Cl)cc1)c1ccc([C@H]2C[C@H]2C(=O)O)cc1NC(=O)Nc1ccc(C)cc1 (single isomer, unassigned) [Example 43] | 88 nM |
| CC(C)CN(CC(C)C)c1ccc([C@H]2C[C@H]2C(=O)O)cc1NC(=O)Nc1ccc(C(F)(F)F)cc1 [Example 5, (1R,2S)-2-(4-(diisobutylamino)-3-(3-(4-(trifluoromethyl)phenyl)ureido)phenyl)cyclopropanecarboxylic acid] | 941 nM |
| CC(C)CN(CC(C)C)c1ccc([C@H]2C[C@H]2C(=O)O)cc1NC(=O)Nc1ccc(Cl)c(Cl)c1 [Example 6, (1R,2S)-2-(3-(3-(3,4-dichlorophenyl)ureido)-4-(diisobutylamino)phenyl) cyclopropanecarboxylic acid] | 148 nM |
| CC(C)CN(CC(C)C)c1ccc([C@H]2C[C@H]2C(=O)O)cc1NC(=O)Nc1ccccc1Cl [Example 9, (1R,2S)-2-(3-(3-(2-chlorophenyl)ureido)-4-(diisobutylamino)phenyl) cyclopropanecarboxylic acid] | 97 nM |
| Cc1ccc(NC(=O)Nc2cc([C@H]3C[C@H]3C(=O)O)ccc2N(CC(C)C)CC(C)C)c(Cl)c1 [Example 14, (1R,2S)-2-(3-(3-(2-chloro-4-methylphenyl)ureido)-4-(diisobutylamino)phenyl) cyclopropanecarboxylic acid] | 86 nM |
| CC(C)CN(CC(C)C)c1ccc([C@H]2C[C@H]2C(=O)O)cc1NC(=O)Nc1ccc(CC#N)cc1 [Example 15, (1R,2S)-2-(3-(3-(4-(cyanomethyl)phenyl)ureido)-4-(diisobutylamino)phenyl) cyclopropanecarboxylic acid] | 541 nM |
| Cc1cccc(NC(=O)Nc2cc([C@@H]3C[C@@H]3C(=O)O)ccc2N(CC(C)C)CC(C)C)c1 [Example 19, (1S,2R)-2-(4-(diisobutylamino)-3-(3-(m-tolyl)ureido)phenyl) cyclopropanecarboxylic acid] | 442 nM |
| CC(C)CN(CC(C)C)c1ccc([C@@H]2C[C@@H]2C(=O)O)cc1NC(=O)Nc1ccc(C2CC2)cc1 [Example 20, (1S,2R)-2-(3-(3-(4-cyclopropylphenyl)ureido)-4-(diisobutylamino)phenyl) cyclopropanecarboxylic acid] | 61 nM |
| Cc1cc(CC(=O)Nc2cc([C@@H]3C[C@@H]3C(=O)O)ccc2N(CC(C)C)CC(C)C)on1 [Example 63, (1S,2R)-2-(4-(diisobutylamino)-3-(2-(3-methylisoxazol-5-yl)acetamido)phenyl) cyclopropanecarboxylic acid] | 262 nM |
| CCOC(=O)Nc1ccc(NC(=O)Nc2cc([C@@H]3C[C@@H]3C(=O)O)ccc2N(CC(C)C)CC(C)C)cc1 [Example 71, (1S,2R)-2-(4-(diisobutylamino)-3-(3-(4-((ethoxycarbonyl)amino)phenyl)ureido)phenyl)cyclopropanecarboxylic acid] | 519 nM |
| CC(C)CN(CC(C)C)c1ccc([C@@H]2C[C@@H]2C(=O)O)cc1NC(=O)Nc1ccc(OCC(F)(F)F)cc1 [Example 72, (1S,2R)-2-(4-(diisobutylamino)-3-(3-(4-(2,2,2-trifluoroethoxy)phenyl)ureido)phenyl)cyclopropanecarboxylic acid] | 200 nM |
| Cc1ccc(NC(=O)Nc2cc([C@H]3C[C@H]3C(=O)O)ccc2N(CCCC(F)(F)F)C2CCCCC2)cc1 [Example 73, (1R,2S)-2-(4-(cyclohexyl(4,4,4-trifluorobutyl)amino)-3-(3-(p-tolyl)ureido)phenyl)cyclopropanecarboxylic acid] | 527 nM |
| O=C(Nc1cncnc1)Nc1cc([C@H]2C[C@H]2C(=O)O)ccc1N(CCCC(F)(F)F)C1CCCCC1 [Example 75] | 787 nM |
| Cc1ccc(NC(=O)Nc2cc([C@@H]3C[C@@H]3C(=O)O)ccc2N(CCCC(F)(F)F)C2CCCCC2)cc1 [Example 76, (1S,2R)-2-(4-(cyclohexyl(4,4,4-trifluorobutyl)amino)-3-(3-(p-tolyl)ureido)phenyl)cyclopropanecarboxylic acid] | 338 nM |
| Cc1ncc(NC(=O)Nc2cc([C@@H]3C[C@@H]3C(=O)O)ccc2N(CC(C)C)CC(C)C)cn1 [Example 77, (1S,2R)-2-(4-(diisobutylamino)-3-(3-(2-methylpyrimidin-5-yl)ureido)phenyl)cyclopropanecarboxylic acid] | 64 nM |
| O=C(Nc1cncnc1)Nc1cc([C@H]2C[C@H]2C(=O)O)ccc1N(CCC(F)(F)F)C1CCCCC1 [Example 87, (1R,2S)-2-(4-(cyclohexyl(3,3,3-trifluoropropyl)amino)-3-(3-(pyrimidin-5-yl)ureido)phenyl)cyclopropanecarboxylic acid] | 994 nM |
| CC(C)CN(CC(C)C)c1ccc([C@H]2C[C@H]2C(=O)O)cc1NC(=O)Cc1ccc(F)cc1 [Example 117, (1R,2S)-2-(4-(diisobutylamino)-3-(2-(4-fluorophenyl)acetamido)phenyl)cyclopropanecarboxylic acid] | 97 nM |
| Cc1ccc(CC(=O)Nc2cc([C@H]3C[C@H]3C(=O)O)ccc2N(CC(C)C)CC(C)C)cn1 [Example 118, (1R,2S)-2-(4-(diisobutylamino)-3-(2-(6-methylpyridin-3-yl)acetamido)phenyl)cyclopropanecarboxylic acid] | 126 nM |

Molecules with a lower IC50, results first:

| IC50 | SMILES |
| --- | --- |
| 23 nM | Cc1cc(NC(=O)Nc2cc([C@@H]3C[C@@H]3C(=O)O)ccc2N(CC(C)C)CC(C)C)no1 [Example 67, (1S,2R)-2-(4-(diisobutylamino)-3-(3-(5-methylisoxazol-3-yl)ureido)phenyl)cyclopropanecarboxylic acid] |
| 21 nM | Cc1ccc(CC(=O)Nc2cc([C@H]3C[C@H]3C(=O)O)ccc2N(CC(C)C)CC(C)C)cc1 [Example 60, (1R,2S)-2-(4-(diisobutylamino)-3-(2-(p-tolyl)acetamido)phenyl)cyclopropanecarboxylic acid] |
| 8 nM | COC(=O)[C@@H]1C[C@@H]1c1ccc(N(CC(C)C)CC(C)C)c([N+](=O)[O-])c1 [Example 1J, (1R,2S)-methyl 2-(4-(diisobutylamino)-3-nitrophenyl) cyclopropanecarboxylate] |
| 7 nM | CC(C)CN(CC(C)C)c1ccc([C@H]2C[C@H]2C(=O)O)cc1NC(=O)Nc1cc(C(F)(F)F)no1 [Example 36, (1R,2S)-2-(4-(diisobutylamino)-3-(3-(3-(trifluoromethyl)isoxazol-5-yl)ureido)phenyl)cyclopropanecarboxylic acid] |
| 7 nM | CC(C)CN(CC(C)C)c1ccc([C@@H]2C[C@@H]2C(=O)O)cc1NC(=O)Nc1cc(C(F)(F)F)no1 [Example 37, (1S,2R)-2-(4-(diisobutylamino)-3-(3-(3-(trifluoromethyl)isoxazol-5-yl)ureido)phenyl)cyclopropanecarboxylic acid] |
| 6 nM | Cc1cc(NC(=O)Nc2cc([C@H]3C[C@H]3C(=O)O)ccc2N(CC(C)C)CC(C)C)on1 [Example 30, (1R,2S)-2-(4-(diisobutylamino)-3-(3-(3-methylisoxazol-5-yl)ureido)phenyl)cyclopropanecarboxylic acid] |
| 4 nM | Cc1cc(NC(=O)Nc2cc([C@@H]3C[C@@H]3C(=O)O)ccc2N(CC(C)C)CC(C)C)on1 [Example 31, (1S,2R)-2-(4-(diisobutylamino)-3-(3-(3-methylisoxazol-5-yl)ureido)phenyl)cyclopropanecarboxylic acid] |
| 2 nM | CC(C)CN(CC(C)C)c1ccc([C@H]2C[C@H]2C(=O)O)cc1NC(=O)Nc1cc(C2CC2)no1 [Example 34, (1R,2S)-2-(3-(3-(3-cyclopropylisoxazol-5-yl)ureido)-4-(diisobutylamino)phenyl)cyclopropanecarboxylic acid] |
| 2 nM | COC(=O)C1CC1c1ccc(N(CC(C)C)CC(C)C)c([N+](=O)[O-])c1 (stereo not drawn) [ent-1J] |
| 0.5 nM | Cc1cc(NC(=O)Nc2cc([C@H]3C[C@H]3C(=O)O)ccc2N(CC(C)C)C2CCCCC2)on1 [Example 129, (1R,2S)-2-(4-(cyclohexyl(isobutyl)amino)-3-(3-(3-methylisoxazol-5-yl)ureido)phenyl)cyclopropanecarboxylic acid] |
